This note sets out measurements from paper PMC10272271, “MAM-2201 acute administration impairs motor, sensorimotor, prepulse inhibition, and memory functions in mice: a comparison with its analogue AM-2201” (Psychopharmacology, 2023).

Common to all, as to format: in vivo, mouse
In assay [1] the test system is CD-1 male mice. Put plainly: Visual placing response test. On the procedure:
(§1) For the overall study 234 mice were used. In sensorimotor (visual object, visual placing, acoustic, and overall tactile responses) tests for MAM-2201, experiments for each treatment dose (vehicle or 5 different MAM-2201 doses, 0.01, 0.1, 1, 3, and 6 mg/kg) used 8 mice (total mice used: 48) and for MAM-2201 with AM-251 pretreatment, experiments for each dose regimen (vehicle + AM-251 or MAM-2201 + AM-251, 6 mg/kg) used 16 mice. In the analysis of spontaneous locomotion (open field test) for MAM-2201, experiments for each treatment regimen (vehicle or 4 different MAM-2201 doses, 0.01, 0.1, 1, and 6 mg/kg) used 10 mice (total mice used: 50). In the PPI test for MAM-2201, experiments for each treatment (vehicle or 3 different MAM-2201 doses, 0.01, 0.1, and 1 mg/kg) used 10 mice (total mice used: 40), while for MAM-2201 experiments in the Novel Object Recognition (NOR) test for each treatment regimen (vehicle or 3 different MAM-2201 and vehicle or 3 different AM-2201 doses, 0.01, 0.1, and 1 mg/kg) used 10 mice (total mice used: 80). […] The voluntary and involuntary motor responses of the animal to different visual, acoustic, and tactile stimuli were evaluated according to the procedure described in our previous studies (Ossato et al. [2015]; Bilel et al. [2020]). To reduce the number of animals used, mice were evaluated in functional observational tests carried out in a consecutive manner according to the following time scheme: observation of visual object responses (frontal and lateral view), acoustic response, tactile response (vibrissae, corneal and pinnae reflexes), and visual placing response. Sensorimotor tests were measured at 10, 30, 60, 120, 180, 240, and 300 min after injections for the evaluation of the visual object, acoustic and the tactile response, and at 15, 45, 75, 135, 195, 255, and 315 min after injections for the evaluation of visual placing response. […] Sensory gating was evaluated by analysis of the pre-pulse inhibition (PPI) of the acoustic startle reflex as previously described (Bilel et al. [2020]). […]

Assay [2] deals with CD-1 male mice. In words: Spontaneous locomotor activity (open field, ANY-maze). On the procedure: as §1, with “50).” for “50). In the PPI test for MAM-2201, experiments for each treatment (vehicle or 3 different MAM-2201 doses, 0.01, 0.1, and 1 mg/kg) used 10 mice (total mice used: 40), while for MAM-2201 experiments in the Novel Object Recognition (NOR) test for each treatment regimen (vehicle or 3 different MAM-2201 and vehicle or 3 different AM-2201 doses, 0.01, 0.1, and 1 mg/kg) used 10 mice (total mice used: 80).”, “response.” for “response. Sensorimotor tests were measured at 10, 30, 60, 120, 180, 240, and 300 min after injections for the evaluation of the visual object, acoustic and the tactile response, and at 15, 45, 75, 135, 195, 255, and 315 min after injections for the evaluation of visual placing response.”

Assay [3] concerns CD-1 male mice. In words: Overall tactile response (vibrissae, corneal, pinnae reflexes). On the procedure:
For the overall study 234 mice were used. In sensorimotor (visual object, visual placing, acoustic, and overall tactile responses) tests for MAM-2201, experiments for each treatment dose (vehicle or 5 different MAM-2201 doses, 0.01, 0.1, 1, 3, and 6 mg/kg) used 8 mice (total mice used: 48) and for MAM-2201 with AM-251 pretreatment, experiments for each dose regimen (vehicle + AM-251 or MAM-2201 + AM-251, 6 mg/kg) used 16 mice. In the analysis of spontaneous locomotion (open field test) for MAM-2201, experiments for each treatment regimen (vehicle or 4 different MAM-2201 doses, 0.01, 0.1, 1, and 6 mg/kg) used 10 mice (total mice used: 50). In the PPI test for MAM-2201, experiments for each treatment (vehicle or 3 different MAM-2201 doses, 0.01, 0.1, and 1 mg/kg) used 10 mice (total mice used: 40), while for MAM-2201 experiments in the Novel Object Recognition (NOR) test for each treatment regimen (vehicle or 3 different MAM-2201 and vehicle or 3 different AM-2201 doses, 0.01, 0.1, and 1 mg/kg) used 10 mice (total mice used: 80). In the present study the effect of MAM-2201 on sensorimotor responses was investigated using a battery of behavioral tests widely used in studies of “safety-pharmacology,” that we routinely adopted in our laboratory, for the preclinical characterization of new molecules in rodents (Ossato et al. [2015]; Vigolo et al. [2015]; Bilel et al. [2020]). The voluntary and involuntary motor responses of the animal to different visual, acoustic, and tactile stimuli were evaluated according to the procedure described in our previous studies (Ossato et al. [2015]; Bilel et al. [2020]). To reduce the number of animals used, mice were evaluated in functional observational tests carried out in a consecutive manner according to the following time scheme: observation of visual object responses (frontal and lateral view), acoustic response, tactile response (vibrissae, corneal and pinnae reflexes), and visual placing response. Sensorimotor tests were measured at 10, 30, 60, 120, 180, 240, and 300 min after injections for the evaluation of the visual object, acoustic and the tactile response, and at 15, 45, 75, 135, 195, 255, and 315 min after injections for the evaluation of visual placing response. Behavioral tests were conducted in a thermostated (temperature: 20–22 °C, humidity: 45–55%) and light (150 lx) controlled room with a background noise of 40 ± 4 dB. […] The behavior of mice was videotaped by a camera (B/W USB Camera day & night with varifocal lens; Ugo Basile, Italy) placed at the top or on one side of the box and analyzed off-line by a different trained operator. […] Sensory gating was evaluated by analysis of the pre-pulse inhibition (PPI) of the acoustic startle reflex as previously described (Bilel et al. [2020]). […]

For assay [4], the system named is CD-1 male mice. Put plainly: Visual object response test. On the procedure: For the overall study 234 mice were used. In sensorimotor (visual object, visual placing, acoustic, and overall tactile responses) tests for MAM-2201, experiments for each treatment dose (vehicle or 5 different MAM-2201 doses, 0.01, 0.1, 1, 3, and 6 mg/kg) used 8 mice (total mice used: 48) and for MAM-2201 with AM-251 pretreatment, experiments for each dose regimen (vehicle + AM-251 or MAM-2201 + AM-251, 6 mg/kg) used 16 mice. In the analysis of spontaneous locomotion (open field test) for MAM-2201, experiments for each treatment regimen (vehicle or 4 different MAM-2201 doses, 0.01, 0.1, 1, and 6 mg/kg) used 10 mice (total mice used: 50). In the PPI test for MAM-2201, experiments for each treatment (vehicle or 3 different MAM-2201 doses, 0.01, 0.1, and 1 mg/kg) used 10 mice (total mice used: 40), while for MAM-2201 experiments in the Novel Object Recognition (NOR) test for each treatment regimen (vehicle or 3 different MAM-2201 and vehicle or 3 different AM-2201 doses, 0.01, 0.1, and 1 mg/kg) used 10 mice (total mice used: 80). In the present study the effect of MAM-2201 on sensorimotor responses was investigated using a battery of behavioral tests widely used in studies of “safety-pharmacology,” that we routinely adopted in our laboratory, for the preclinical characterization of new molecules in rodents (Ossato et al. [2015]; Vigolo et al. [2015]; Bilel et al. [2020]). The voluntary and involuntary motor responses of the animal to different visual, acoustic, and tactile stimuli were evaluated according to the procedure described in our previous studies (Ossato et al. [2015]; Bilel et al. [2020]). To reduce the number of animals used, mice were evaluated in functional observational tests carried out in a consecutive manner according to the following time scheme: observation of visual object responses (frontal and lateral view), acoustic response, tactile response (vibrissae, corneal and pinnae reflexes), and visual placing response. Sensorimotor tests were measured at 10, 30, 60, 120, 180, 240, and 300 min after injections for the evaluation of the visual object, acoustic and the tactile response, and at 15, 45, 75, 135, 195, 255, and 315 min after injections for the evaluation of visual placing response. Behavioral tests were conducted in a thermostated (temperature: 20–22 °C, humidity: 45–55%) and light (150 lx) controlled room with a background noise of 40 ± 4 dB. The apparatus for the visual object, acoustic and tactile sensorimotor tests consisted of an experimental chamber (350 × 350 × 350 mm) with black methacrylate walls and a transparent front door. During the week before the experiment, each mouse was placed in the box and handled (once a day) on every other day, i.e., 3 times, to get used to both the environment and the experimenter. To avoid olfactory cues, cages were carefully cleaned with a dilute (5%) ethanol solution and rinsed with water. All experiments were performed between 8:30 AM and 2:00 PM and conducted by trained observers working in pairs who were blinded to the treatment being tested (Ossato et al. [2015]). The behavior of mice was videotaped by a camera (B/W USB Camera day & night with varifocal lens; Ugo Basile, Italy) placed at the top or on one side of the box and analyzed off-line by a different trained operator. Spontaneous locomotion studies were conducted in a separate set of animals through ANYMAZE test. Sensory gating was evaluated by analysis of the pre-pulse inhibition (PPI) of the acoustic startle reflex as previously described (Bilel et al. [2020]).
Visual object response test was used to evaluate the ability of the mouse to see an object approaching from the front (frontal view) or the side (lateral view) that typically induces the animal to shift or turn the head, bring the forelimbs in the position of “defense” or retreat from it. For the frontal visual response, a white horizontal bar was moved frontally to the mouse head and the maneuver was repeated 3 times. […]

Assay [5] deals with CD-1 male mice. In words: Acoustic response test. The conditions noted are these: for acoustic response reduced to about: immediately after administration. On the procedure: For the overall study 234 mice were used. In sensorimotor (visual object, visual placing, acoustic, and overall tactile responses) tests for MAM-2201, experiments for each treatment dose (vehicle or 5 different MAM-2201 doses, 0.01, 0.1, 1, 3, and 6 mg/kg) used 8 mice (total mice used: 48) and for MAM-2201 with AM-251 pretreatment, experiments for each dose regimen (vehicle + AM-251 or MAM-2201 + AM-251, 6 mg/kg) used 16 mice. In the analysis of spontaneous locomotion (open field test) for MAM-2201, experiments for each treatment regimen (vehicle or 4 different MAM-2201 doses, 0.01, 0.1, 1, and 6 mg/kg) used 10 mice (total mice used: 50). In the PPI test for MAM-2201, experiments for each treatment (vehicle or 3 different MAM-2201 doses, 0.01, 0.1, and 1 mg/kg) used 10 mice (total mice used: 40), while for MAM-2201 experiments in the Novel Object Recognition (NOR) test for each treatment regimen (vehicle or 3 different MAM-2201 and vehicle or 3 different AM-2201 doses, 0.01, 0.1, and 1 mg/kg) used 10 mice (total mice used: 80). In the present study the effect of MAM-2201 on sensorimotor responses was investigated using a battery of behavioral tests widely used in studies of “safety-pharmacology,” that we routinely adopted in our laboratory, for the preclinical characterization of new molecules in rodents (Ossato et al. [2015]; Vigolo et al. [2015]; Bilel et al. [2020]). The voluntary and involuntary motor responses of the animal to different visual, acoustic, and tactile stimuli were evaluated according to the procedure described in our previous studies (Ossato et al. [2015]; Bilel et al. [2020]). To reduce the number of animals used, mice were evaluated in functional observational tests carried out in a consecutive manner according to the following time scheme: observation of visual object responses (frontal and lateral view), acoustic response, tactile response (vibrissae, corneal and pinnae reflexes), and visual placing response. Sensorimotor tests were measured at 10, 30, 60, 120, 180, 240, and 300 min after injections for the evaluation of the visual object, acoustic and the tactile response, and at 15, 45, 75, 135, 195, 255, and 315 min after injections for the evaluation of visual placing response. Behavioral tests were conducted in a thermostated (temperature: 20–22 °C, humidity: 45–55%) and light (150 lx) controlled room with a background noise of 40 ± 4 dB. The apparatus for the visual object, acoustic and tactile sensorimotor tests consisted of an experimental chamber (350 × 350 × 350 mm) with black methacrylate walls and a transparent front door. During the week before the experiment, each mouse was placed in the box and handled (once a day) on every other day, i.e., 3 times, to get used to both the environment and the experimenter. To avoid olfactory cues, cages were carefully cleaned with a dilute (5%) ethanol solution and rinsed with water. All experiments were performed between 8:30 AM and 2:00 PM and conducted by trained observers working in pairs who were blinded to the treatment being tested (Ossato et al. [2015]). The behavior of mice was videotaped by a camera (B/W USB Camera day & night with varifocal lens; Ugo Basile, Italy) placed at the top or on one side of the box and analyzed off-line by a different trained operator. […] Sensory gating was evaluated by analysis of the pre-pulse inhibition (PPI) of the acoustic startle reflex as previously described (Bilel et al. [2020]). […]

[6] abbreviates: Mus musculus, ip, mice, value ± SEM.

With `Cc1ccc(C(=O)c2cn(CCCCCF)c3ccccc23)c2ccccc12` [MAM-2201, 1-[(5-fluoropentyl)-1H-indol-3-yl](4-methyl-1-naphthalenyl) methanone], the “effect on visual placing response” value with CD-1 male mice [1] (0.01-6 mg/kg i.p., persisted up to 5 h at all doses) is reported as “drastic impairment”. For the same compound, the ED50 with CD-1 male mice [1] (setting [6]) stood at 0.291 ± 0.025 mg/kg; with CD-1 male mice [3] (setting [6]) it was 1.861 ± 0.011 mg/kg; in the assay on CD-1 male mice [4] (Mus musculus, ip, mice, value ± SEM, dose for 50% of overall mean effect), 1.14 ± 0.089 mg/kg; with CD-1 male mice [5] (Mus musculus, ip, mice, i.p., value ± SEM, acoustic response test, read-out: ED50 (mg/kg), Startle reflex), 1.25 ± 0.013 mg/kg. The “effect on immobility time” value in the assay on CD-1 male mice [2] (1 and 6 mg/kg i.p., first hour) is given as “increased”. Further, the “time during which motor capacity was affected” value in the assay with CD-1 male mice [2] (open field test) is listed as no more than 60 min. For the same compound, the “effect on overall tactile response” value was “slightly reduced” with CD-1 male mice [3] (1 mg/kg i.p., first hour after administration); “deeper and more persistent effect” in the assay with CD-1 male mice [3] (3 and 6 mg/kg i.p.). For the same compound, the “effect on visual object response” value is “transiently reduced” in the assay with CD-1 male mice [4] (0.01 mg/kg i.p., at 30 min after injection); “long-lasting inhibition” in the assay with CD-1 male mice [4] (0.1 mg/kg i.p.); “total inhibition” with CD-1 male mice [4] (1 mg/kg i.p., at 30 min); “deep and prolonged impairment” in the assay with CD-1 male mice [4] (3 and 6 mg/kg i.p., until end of test (5 h)). Moreover, the “acoustic response reduced to about” value with CD-1 male mice [5] (1 mg/kg i.p.) was “about 20%”; in the assay on CD-1 male mice [5] (3 mg/kg i.p.), roughly 80%; with CD-1 male mice [5] (6 mg/kg i.p.), roughly 100%.
